Eleven molecules from patent publication US6730697B2, “Dihydrothiaphenanthrenecarbonylguanidines: composition, process of making, and use as medicament or diagnostic aid” (Aventis Pharma Deutschland GmbH, priority 2002, dated 2004) can be followed below.

Counter-ions that a name gives are not always drawn.

The target in the assay is T1, human NHE-1 (Homo sapiens, UniProt P19634).
T1 construct: expressed in transfected cells; host or cells: LAP-1 cells (parental line without endogenous NHE activity, from Prof. Pouysségur, Nice), G418-selected transfectants
T1 sequence (P19634 whole entry): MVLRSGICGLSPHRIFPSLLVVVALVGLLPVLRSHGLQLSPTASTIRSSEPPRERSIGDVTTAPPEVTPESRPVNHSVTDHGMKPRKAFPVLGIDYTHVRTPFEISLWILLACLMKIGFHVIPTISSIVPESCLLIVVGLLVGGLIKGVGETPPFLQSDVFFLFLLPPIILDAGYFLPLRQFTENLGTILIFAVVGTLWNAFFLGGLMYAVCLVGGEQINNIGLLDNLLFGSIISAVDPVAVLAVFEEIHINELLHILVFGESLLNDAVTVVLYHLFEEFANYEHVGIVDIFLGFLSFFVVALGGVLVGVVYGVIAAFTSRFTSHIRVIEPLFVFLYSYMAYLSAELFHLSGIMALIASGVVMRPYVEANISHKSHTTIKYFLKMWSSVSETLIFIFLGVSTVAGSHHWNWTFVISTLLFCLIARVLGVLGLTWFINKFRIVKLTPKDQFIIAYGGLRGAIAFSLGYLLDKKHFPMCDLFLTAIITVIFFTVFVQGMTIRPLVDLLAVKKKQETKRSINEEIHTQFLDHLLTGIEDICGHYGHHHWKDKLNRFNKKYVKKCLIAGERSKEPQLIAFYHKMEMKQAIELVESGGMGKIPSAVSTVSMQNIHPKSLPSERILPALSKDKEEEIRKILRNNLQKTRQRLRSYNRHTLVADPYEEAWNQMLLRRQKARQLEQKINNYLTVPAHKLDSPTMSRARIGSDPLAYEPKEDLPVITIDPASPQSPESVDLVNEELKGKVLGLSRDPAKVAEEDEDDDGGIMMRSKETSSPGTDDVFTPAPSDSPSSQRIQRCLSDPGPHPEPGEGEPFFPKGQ
Kind of assay: FLIPR assay for NHE-1 inhibition by recovery of pHi in transfected cell lines. The assay is classed as cell-based. The settings on record: transfected LAP-1 cell line expressing human NHE-1, BCECF fluorescence. As for the experimental part:
The NHE-1 inhibition IC50 [nM] was determined as follows: FLIPR Assay for Determining NHE-1 Inhibitors by Measurement of the Recovery in pHi in Transfected Cell Lines Which Express Human NHE-1 The assay is carried out in an FLIPR (fluorometric imaging plate reader) with black-walled 96-well microtiter plates with clear bases. […] [The growth medium for the transfected cells (Iscove +10% fetal calf serum) additionally contains G418 as selection antibiotic in order to ensure the presence of the transfected sequences.] The actual assay starts with the removal of the growth medium and addition of 100 μl of loading buffer per well (5 μM BCECF-AM [2′, 7′-bis(carboxyethyl)-5-(and-6)-carboxyfluorescein, acetoxymethyl ester] in 20 mM NH4Cl, 115 mM choline chloride, 1 mM MgCl2, 1 mM CaCl2, 5 mM KCl, 20 mM HEPES, 5 mM glucose; pH 7.4 [adjusted with KOH]). The cells are then incubated at 37° C. for 20 minutes. This incubation leads to loading of the cells with the fluorescent dye whose fluorescence intensity depends on pHi, and with NH4Cl which makes the cells slightly alkaline. [The nonfluorescent dye precursor BCECF-AM is, as ester, membrane-permeable. The actual dye BCECF is not membrane-permeable but is liberated inside cells by esterases.] After this incubation for 20 minutes, the loading buffer which contains NH4Cl and free BCECF-AM is removed by washing three times in a cell washer (Tecan Columbus) with in each case 400 μl of washing buffer (133.8 mM choline chloride, 4.7 mM KCl, 1.25 mM MgCl2, 1.25 mM CaCl2, 0.97 mM K2HPO4, 0.23 mM KH2PO4, 5 mM HEPES, 5 mM glucose; pH 7.4 [adjusted with KOH]). The residual volume remaining in the wells is 90 μl (50-125 μl possible). This washing step removes the free BCECF-AM and results, as a consequence of the removal of the external NH4^+ ions, in intracellular acidification (˜pHi 6.3-6.4). Since the equilibrium of intracellular NH4^+ with NH3 and H^+ is disturbed by the removal of the extracellular NH4^+ and by the subsequent instantaneous passage of the NH3 through the cell membrane, the washing process results in H^+ remaining inside the cells, which is the cause of the intracellular acidification. This may eventually lead to cell death if it persists long enough. It is important at this point that the washing buffer is sodium-free (<1 mM) because extracellular sodium ions would lead to an instantaneous recovery of the pHi through the activity of the cloned NHE isoforms. It is likewise important for all the buffers used (loading buffer, washing buffer, recovery buffer) not to contain any HCO3^− ions, because the presence of bicarbonate would lead to activation of interfering bicarbonate-dependent pHi regulatory systems present in the parental LAP-1 cell line. The microtiter plates with the acidified cells are then (up to 20 minutes after the acidification) transferred to the FLIPR. In the FLIPR, the intracellular fluorescent dye is excited by light with a wavelength of 488 nm generated by an argon laser, and the measured parameters (laser power, illumination time and aperture of the CCD camera incorporated in the FLIPR) are chosen so that the average fluorescence signal per well is between 30 000 and 35 000 relative fluorescence units. The actual measurement in the FLIPR starts with a photograph being taken by the CCD camera every two seconds under software control. After ten seconds, the recovery of the intracellular pH is initiated by adding 90 μl of recovery buffer (133.8 mM NaCl, 4.7 mM KCl, 1.25 mM MgCl2, 1.25 mM CaCl2, 0.97 mM K2HPO4, 0.23 mM KH2PO4, 10 mM HEPES, 5 mM glucose; pH 7.4 [adjusted with NaOH]) by means of the 96-well pipettor incorporated in the FLIPR. Positive control wells (100% NHE activity) are those to which pure recovery buffer is added, while negative controls (0% NHE activity) receive washing buffer. Recovery buffer with twice the concentration of test substance is added to all the other wells. Measurement in the FLIPR terminates after 60 measurements (two minutes). […]
Consider `Cc1cc2c(cc1C(=O)NC(=N)N)S(=O)(=O)Cc1ccccc1-2` [Example 1, N-(6-Methyl-9,9-dioxo-9,10-dihydro-9-thiaphenanthrene-7-carbonyl)guanidinium Formate], for which the IC50 – broadly, the midpoint of a concentration-inhibition curve – was found to be 15.6 nM.
For the molecule `Cc1cc2c(cc1C(=O)NC(=N)N)S(=O)(=O)Cc1ccc3ccccc3c1-2` [Example 2, N-(2-Methyl-5,5-dioxo-5,6-dihydro-5-thiabenzo[c]phenanthrene-3-carbonyl)guanidinium Formate], the IC50 worked out at 24.2 nM. This IC50 is about 1.6-fold higher than that of the molecule before.
`Cc1ccc2c(c1)-c1cc(C)c(C(=O)NC(=N)N)cc1S(=O)(=O)C2` [Example 3, N-(3,6-Dimethyl-9,9-dioxo-9,10-dihydro-9-thiaphenanthrene-7-carbonyl)-guanidinium Formate] came in with a half-inhibitory concentration (IC50) of 8.6 nM.
Molecule `Cc1cc2c(cc1C(=O)NC(=N)N)S(=O)(=O)Cc1cc(Cl)ccc1-2` [Example 4, N-(2-Chloro-6-methyl-9,9-dioxo-9,10-dihydro-9-thiaphenanthrene-7-carbonyl)guanidinium Formate] had an IC50 of 10.8 nM.
Molecule `Cc1cc2c(cc1C(=O)NC(=N)N)S(=O)(=O)Cc1ccc(F)cc1-2` [Example 5, N-(3-Fluoro-6-methyl-9,9-dioxo-9,10-dihydro-9-thiaphenanthrene-7-carbonyl)guanidinium Formate] had an IC50 of 15.6 nM. This IC50 and that of the molecule before are within 1.5-fold of each other.
To `Cc1cc2c(cc1C(=O)NC(=N)N)S(=O)(=O)Cc1c(F)cccc1-2` [Example 6, N-(1-Fluoro-6-methyl-9,9-dioxo-9,10-dihydro-9-thiaphenanthrene-7-carbonyl)guanidinium Formate] belongs 16.5 nM; to `Cc1cc2c(cc1C(=O)NC(=N)N)S(=O)(=O)Cc1ccc(Cl)cc1-2` [Example 7, N-(3-Chloro-6-methyl-9,9-dioxo-9,10-dihydro-9-thiaphenanthrene-7-carbonyl)guanidinium Formate], 11.7 nM; to `COc1ccc2c(c1)CS(=O)(=O)c1cc(C(=O)NC(=N)N)c(C)cc1-2` [Example 8, N-(2-Methoxy-6-methyl-9,9-dioxo-9,10-dihydro-9-thiaphenanthrene-7-carbonyl)guanidinium Formate], 10.2 nM.
Turning to `Cc1cc2c(cc1C(=O)NC(=N)N)S(=O)(=O)Cc1c(Cl)cccc1-2` [Example 9, N-(1-Chloro-6-methyl-9,9-dioxo-9,10-dihydro-9-thiaphenanthrene-7-carbonyl)guanidinium Formate], the 50% inhibitory concentration (IC50) is 13.9 nM.
In turn, `Cc1cc2c(cc1C(=O)NC(=N)N)S(=O)(=O)Cc1cccc(C)c1-2` [Example 10, N-(4,6-Dimethyl-9,9-dioxo-9,10-dihydro-9-thiaphenanthrene-7-carbonyl)-guanidinium Formate] displayed an IC50 of 67.7 nM.
The figure for `Cc1ccc2c(c1)CS(=O)(=O)c1cc(C(=O)NC(=N)N)c(C)cc1-2` [Example 11, N-(2,6-Dimethyl-9,9-dioxo-9,10-dihydro-9-thiaphenanthrene-7-carbonyl)-guanidinium Formate] is 19.5 nM.
